Assay results reported in US20130310431A1, “USES FOR SUBSTITUTED 2-AMINO-THIAZOLONES IN TREATING ALZHEIMER'S DISEASE” (Amgen Inc, priority 2010, published 2013).
Entries after “also recorded” stand apart in the source; their conditions may differ.

Key:
aged Wistar rats = assay: Novel object recognition study (reversal of age-related behavioral deficits); format: in vivo; conditions: aged (20 months) Wistar rats, 14 day treatment, 3, 10, 30 mg/kg; compared to galantamine; FIG. 1; listed as AMG221
Protocol: Thus, over a 14 day treatment period, young and aged (20 months) Wistar rats were administered formulations as follows: […]
1. Young: pharmaceutical vehicle (no active agent);
2. Young: galantamine, an acetylcholinesterase inhibitor as a positive control;

[1] = Concentration vs. time profiles in plasma, CSF, brain regions and fat after intravenous infusion; format: in vivo, cynomolgus monkeys; conditions: cynomolgus monkey, intravenous infusion for 1 hour
Protocol: The concentration of AMG221 in the biological samples described above was measured as a function of time.
The concentration of (B) in the biological samples described above was measured as a function of time.

time concentrations exceeded the cynomolgus Ki for 11β-HSD1 in CSF ([1]; CSF) | distribution into fat ([1]; relative to AMG221) | SMILES | improvement in novel object recognition (aged Wistar rats) | distribution within central nervous system versus fat [1] | time concentrations exceeded the cynomolgus Ki for 11β-HSD1 in unbound plasma [1]
– | – | CC(C)[C@]1(C)SC(N[C@H]2C[C@@H]3CC[C@H]2C3)=NC1=O [Compound (A)] | reverses age-related behavioral deficits; also recorded: superior improvement in novel object recognition | distributed uniformly and more rapidly within the central nervous system than in fat | three
five | distributed poorly into fat | CC(C)[C@]1(C)SC(N[C@H]2C[C@H]3C[C@@H]2C[C@@H]3O)=NC1=O [Compound (B)] | – | distributed uniformly and more rapidly within the central nervous system than in fat | eight
